Tested on: 991263-137-R1-J2-PDC complex spheroid viability
Assay: Anticancer human tumor 991263-137-R1-J2-PDC patient-derived colon adenocarcinoma cell line growth inhibition [POLQ]
Settings: for IC50: curve of first compound; for viability, T/C: stronger effect = lower value
Protocol: Multicellular complex tumor spheroid response to Polymerase (POL) inhibitors (novobiocin, ART-558, RP6685) in combination with a variety of drugs and investigational agents in selected tumor cell lines
The POL inhibitors (novobiocin, ART-558, and RP6685) were evaluated both individually and in combination with standard of care and investigational anticancer small molecules within a complex spheroid model of solid tumors. . Complex spheroids include a stromal component modeled by human endothelial cells (HUVEC) and fibroblasts modeled by human mesenchymal stem cells (MSCs). The concentration ranges selected for each drug and investigational agent were based upon clinically achievable concentrations if the clinical Cmax of the agent was known.
Compounds. The drugs and investigational agents: novobiocin (NSC847541), ART-558 (NSC835418), RP-6685 (NSC848927), peposertib (NSC802822), ceralasertib (NSC780249), elimusertib (NSC800525), camonsertib (NSC841442), AZD-1390 (NSC803789), olaparib (NSC753686), talazoparib (NSC767125), rucaparib (NSC756644), sotorasib (NSC818433), MRTX-1133 (NSC836407), SN-38 (NSC673596), topotecan (NSC609699), epotoside (NSC141540), doxorubicin (NSC123127), gemcitabine (NSC613327), 5-fluorouracil (NSC19893), paclitaxel (NSC125973), vemurafenib (NSC761431), MSA-2 (NSC828583), SN-011 (NSC837082), adavosertib (NSC754352), prexasertib (NSC758257), carboplatin (NSC241240) and oxaliplatin (NSC266046), were obtained from the National Cancer Institute (NCI) Developmental Therapeutics Program Chemical Repository (21). The FDA-approved anticancer drug set is available from the Developmental Therapeutics Program at https://dtp.cancer.gov/organization/dscb/obtaining/. […] The stock solutions were prepared in dimethyl sulfoxide (DMSO, Sigma-Aldrich, St. Louis, MO, cat. D2650), except for the platinum compounds which were prepared in saline (Quality Biological, Gaithersburg, MD, cat. 114-055-101), at 800-fold the tested concentration and stored at -70 degrees C prior to their use. All drugs and investigational agents were tested over a range starting from a high concentration at or near the clinical Cmax and decreasing in half-log increments. If the clinical Cmax for an agent had not been determined, the highest concentration tested was 10 microM, except for SN-38, which was tested at a high concentration of 1 microM.
Cell Culture. All cells were maintained in an incubator at 37 degrees C and 5% CO2 with 95% humidity. The PDC lines were cultured according to standard operating procedures established by the NCI PDMR (https://pdmr.cancer.gov). Table 3 of the manuscript, lists the cell lines along with the number of the three cell types plated to form the mct-spheroids and media for tumor cell growth. After thawing, all PDC lines, except 997537-175-T-J1-PDC and 415267-285-R-J2-PDC, were cultured in Matrigel-coated flasks prepared with a working solution of 1X Ham's F-12 nutrient mix, without supplementation (Thermo Fisher Scientific, cat. 11765054), 100 U/mL penicillin-streptomycin (Thermo Fisher Scientific, cat. 15140122), and 2.5% Matrigel (Corning Inc., Corning, NY, cat. 354248) for the first three passages. The two PDC lines 997537-175-T-J1-PDC and 415267-285-R-J2-PDC were cultured on uncoated flasks. The 857933-349-R-J2-PDC line was cultured in 6C/Colon 1B media containing advanced DMEM/F-12 (Thermo Fisher Scientific, cat. 12634028), 10 mM HEPES (Thermo Fisher Scientific, cat. 15630080), 1X GlutaMAX supplement (Thermo Fisher Scientific, cat. 35050061), 0.1 mg/mL primocin (InvivoGen, San Diego, CA, cat. ant-pm-2), 10% defined fetal bovine serum, heat inactivated (HyClone Laboratories Inc., Logan, UT, cat. SH30070.03HI), 50% L-WRN conditioned media (ATCC, cat. CRL-3276), 1.25 mM N-Acetyl-L-cysteine (Sigma-Aldrich, cat. A9165), 10 mM nicotinamide (Sigma-Aldrich, cat. N0636), 1X B-27 supplement (Thermo Fisher Scientific, cat. 17504044), 1X N-2 supplement (Thermo Fisher Scientific, cat. […]
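Note: spheroids exposed to compounds for 7 days before readout.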
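Throughout, for viability, T/C: 100% = DMSO vehicle control viability.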

CC(=O)O[C@H]1C(=O)[C@@]2(C)[C@H]([C@H](OC(=O)c3ccccc3)[C@]3(O)C[C@H](OC(=O)[C@H](O)[C@@H](NC(=O)c4ccccc4)c4ccccc4)C(C)=C1C3(C)C)[C@]1(OC(C)=O)CO[C@@H]1C[C@@H]2O + COC1C(OC(N)=O)C(O)C(Oc2ccc3c(O)c(NC(=O)c4ccc(O)c(CC=C(C)C)c4)c(=O)oc3c2C)OC1(C)C
IC50 (second compound 0.0316 µM): > 3000 nM | IC50 (second compound 0.1 µM): 1950 nM | IC50 (second compound 0.316 µM): 1580 nM | IC50 (second compound 1 µM): 1540 nM | IC50 (second compound 3.16 µM): 1850 nM | IC50 (second compound 10 µM): 1700 nM | viability, T/C (second compound 0.0316 µM, first compound 0.00949 µM): 90% | viability, T/C (second compound 0.0316 µM, first compound 0.03 µM): 100% | viability, T/C (second compound 0.0316 µM, first compound 0.0949 µM): 75.2% | viability, T/C (second compound 0.0316 µM, first compound 0.3 µM): 54.2% | viability, T/C (second compound 0.0316 µM, first compound 0.949 µM): 51.6% | viability, T/C (second compound 0.0316 µM, first compound 3 µM): 48.9% | viability, T/C (second compound 0.1 µM, first compound 0.00949 µM): 100% | viability, T/C (second compound 0.1 µM, first compound 0.03 µM): 90.3% | viability, T/C (second compound 0.1 µM, first compound 0.0949 µM): 78.7% | viability, T/C (second compound 0.1 µM, first compound 0.3 µM): 83% | viability, T/C (second compound 0.1 µM, first compound 0.949 µM): 58.8% | viability, T/C (second compound 0.1 µM, first compound 3 µM): 43% | viability, T/C (second compound 0.316 µM, first compound 0.00949 µM): 103% | viability, T/C (second compound 0.316 µM, first compound 0.03 µM): 97% | viability, T/C (second compound 0.316 µM, first compound 0.0949 µM): 75.5% | viability, T/C (second compound 0.316 µM, first compound 0.3 µM): 74.3% | viability, T/C (second compound 0.316 µM, first compound 0.949 µM): 50.3% | viability, T/C (second compound 0.316 µM, first compound 3 µM): 45.4% | viability, T/C (second compound 1 µM, first compound 0.00949 µM): 93.2% | viability, T/C (second compound 1 µM, first compound 0.03 µM): 97.5% | viability, T/C (second compound 1 µM, first compound 0.0949 µM): 83.8% | viability, T/C (second compound 1 µM, first compound 0.3 µM): 74.1% | viability, T/C (second compound 1 µM, first compound 0.949 µM): 55.6% | viability, T/C (second compound 1 µM, first compound 3 µM): 42.1% | viability, T/C (second compound 3.16 µM, first compound 0.00949 µM): 96.2% | viability, T/C (second compound 3.16 µM, first compound 0.03 µM): 83.5% | viability, T/C (second compound 3.16 µM, first compound 0.0949 µM): 81.4% | viability, T/C (second compound 3.16 µM, first compound 0.3 µM): 70.6% | viability, T/C (second compound 3.16 µM, first compound 0.949 µM): 54.5% | viability, T/C (second compound 3.16 µM, first compound 3 µM): 45.7% | viability, T/C (second compound 10 µM, first compound 0.00949 µM): 86.7% | viability, T/C (second compound 10 µM, first compound 0.03 µM): 91.2% | viability, T/C (second compound 10 µM, first compound 0.0949 µM): 96% | viability, T/C (second compound 10 µM, first compound 0.3 µM): 81% | viability, T/C (second compound 10 µM, first compound 0.949 µM): 57.1% | viability, T/C (second compound 10 µM, first compound 3 µM): 43.4%
